These results are taken from patent US20240025906A1 (NEURON23, INC., priority 2022, published 2024).

Where only a bound is given, the exact number is not on record here.

For test [1], the target named is T1, TYK2 JH2 (Homo sapiens, UniProt P29597).
T1 construct: purchased DiscoverX (KINOMEscan KdELECT service); host or cells: E. coli BL21-derived (T7 phage display) or HEK-293
Kind of test: TYK2 JH2 binding assay (KINOMEscan KdELECT competitive binding). The note with it: TYK2 JH2 domain, KINOMEscan KdELECT (Assay A); read-out: Biochemical TYK2_JH2_Kd. The gist of the method: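 Competition binding, KdELECT format. Kinase (phage-tagged, E. coli BL21-derived host; or HEK-293, DNA-tagged) + ligand-coated streptavidin beads + cpd, 1 h RT, final DMSO 0.9%. Wash, elute 30 min with 0.5 μM non-biotinylated ligand; qPCR readout. Kd: 11-pt, 3-fold series.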

Test [2] concerns JAK1/TYK2 pSTAT5 (Tyr694/699) in THP-1 cell line. Kind of test: IFNa-stimulated JAK1/TYK2 pSTAT5 (Tyr694/699) inhibition cellular assay, AlphaLISA. It is filed as cell-based. The settings on record: Homo sapiens; THP-1 cells, IFNa-stimulated, AlphaLISA (Assay B); read-out: Cellular THP1_IFNa-pSTATS_IC50. Put shortly: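 Compound dilutions were dispensed first, and HBSS-suspended THP-1 cells were added on top (final top concentration 10000 nM, 6-fold series). After 1 h at 37 °C, IFNa (100 ng/mL as added) was applied for 30 min. Cells were then lysed and pSTAT5 was quantified by AlphaLISA.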

T1 sequence (P29597 589-875 limits assumed): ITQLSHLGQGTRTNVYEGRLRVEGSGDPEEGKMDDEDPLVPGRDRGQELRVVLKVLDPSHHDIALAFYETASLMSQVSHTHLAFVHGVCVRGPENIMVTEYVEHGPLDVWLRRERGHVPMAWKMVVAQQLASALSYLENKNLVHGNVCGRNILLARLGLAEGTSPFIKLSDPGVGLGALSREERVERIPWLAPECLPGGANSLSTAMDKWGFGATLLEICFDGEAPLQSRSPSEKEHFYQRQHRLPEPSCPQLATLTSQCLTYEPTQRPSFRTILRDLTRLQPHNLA

For the compound `CNc1ncc(-c2c[nH]c3ncccc23)c2cc(NC(=O)C3CC3)ncc12` [Example 106, N-(8-(methylamino)-5-(1H-pyrrolo[2,3-b]pyridin-3-yl)-2,7-naphthyridin-3-yl)cyclopropanecarboxamide], in test [1], the Kd was at most 0.1 µM. Further, the IC50 in test [2] is over 0.5 µM.

As for `CNc1ncc(-c2ccc3c(c2)OCCO3)c2cc(NC(=O)C3CC3)ncc12` [Example 108, N-(5-(2,3-dihydrobenzo[b][1,4]dioxin-6-yl)-8-(methylamino)-2,7-naphthyridin-3-yl)cyclopropanecarboxamide], the Kd in test [1] was at most 0.1 µM. Moreover, the IC50 in test [2] was over 0.5 µM.

For the compound `CNc1ncc(-c2ccc(C(F)(F)F)cc2)c2cc(NC(=O)C3CC3)ncc12` [Example 109, N-(8-(methylamino)-5-(4-(trifluoromethyl)phenyl)-2,7-naphthyridin-3-yl)cyclopropanecarboxamide], in test [1], the Kd is at most 0.1 µM. Besides, the IC50 in test [2] was over 0.5 µM.

`CNc1ncc(-c2ccc(OC(F)(F)F)cc2)c2cc(NC(=O)C3CC3)ncc12` [Example 110, N-(8-(methylamino)-5-(4-(trifluoromethoxy)phenyl)-2,7-naphthyridin-3-yl)cyclopropanecarboxamide]: the Kd in test [1] is at most 0.1 µM. For the same compound, the IC50 in test [2] was over 0.5 µM.

Take `CNc1ncc(-c2ccc(OCC(F)(F)F)cc2)c2cc(NC(=O)C3CC3)ncc12` [Example 111, N-(8-(methylamino)-5-(4-(2,2,2-trifluoroethoxy)phenyl)-2,7-naphthyridin-3-yl)cyclopropanecarboxamide]: the Kd in test [1] is at most 0.1 µM. Moreover, the IC50 in test [2] was over 0.5 µM.

For `CNc1ncc(-c2ccc(OC(F)F)cc2)c2cc(NC(=O)C3CC3)ncc12` [Example 112, N-(5-(4-(difluoromethoxy)phenyl)-8-(methylamino)-2,7-naphthyridin-3-yl)cyclopropanecarboxamide], the Kd in test [1] was at most 0.1 µM. Further, the IC50 in test [2] was over 0.5 µM.

For the compound `CNc1ncc(-c2ccc(C3CC3)cc2)c2cc(NC(=O)C3CC3)ncc12` [Example 113, N-(5-(4-cyclopropylphenyl)-8-(methylamino)-2,7-naphthyridin-3-yl)cyclopropanecarboxamide], the Kd in test [1] was at most 0.1 µM. Moreover, the IC50 in test [2] was over 0.5 µM.

As to `CNc1ncc(-c2cc3ccccc3o2)c2cc(NC(=O)C3CC3)ncc12` [Example 114, N-(5-(benzofuran-2-yl)-8-(methylamino)-2,7-naphthyridin-3-yl)cyclopropanecarboxamide], the Kd in test [1] is at most 0.1 µM. Moreover, the IC50 in test [2] is at most 0.5 µM.

On to `CNc1ncc(-c2cnn(CCOC)c2)c2cc(NC(=O)C3CC3)ncc12` [Example 115, N-(5-(1-(2-methoxyethyl)-1H-pyrazol-4-yl)-8-(methylamino)-2,7-naphthyridin-3-yl)cyclopropanecarboxamide], for which the Kd in test [1] was at most 0.1 µM. In addition, in test [2], the IC50 is over 0.5 µM.

`CNc1ncc(-c2cccc(F)c2)c2cc(NC(=O)C3CC3)ncc12` [Example 116, N-(5-(3-fluorophenyl)-8-(methylamino)-2,7-naphthyridin-3-yl)cyclopropanecarboxamide]: the Kd in test [1] was at most 0.1 µM. The IC50 in test [2] is over 0.5 µM.

Regarding `CNc1ncc(-c2ccc(OC3CC3)cc2)c2cc(NC(=O)C3CC3)ncc12` [Example 117, N-(5-(4-cyclopropoxyphenyl)-8-(methylamino)-2,7-naphthyridin-3-yl)cyclopropanecarboxamide], the Kd in test [1] is at most 0.1 µM. Also, the IC50 in test [2] is over 0.5 µM.

As for `CNc1ncc(/C(C)=C/c2ccccc2)c2cc(NC(=O)C3CC3)ncc12` [Example 118, (E)-N-(8-(methylamino)-5-(1-phenylprop-1-en-2-yl)-2,7-naphthyridin-3-yl)cyclopropanecarboxamide], the Kd in test [1] was at most 0.1 µM. In addition, the IC50 in test [2] was at most 0.5 µM.

In the case of `CNc1ncc(-c2ccccc2COC)c2cc(NC(=O)C3CC3)ncc12` [Example 119, N-(5-(2-(methoxymethyl)phenyl)-8-(methylamino)-2,7-naphthyridin-3-yl)cyclopropanecarboxamide], in test [1], the Kd was at most 0.1 µM. Further, the IC50 in test [2] was over 0.5 µM.

`CNc1ncc(C(=O)O)c2cc(NC(=O)C3CC3)ncc12` [Example 120, 6-(cyclopropanecarboxamido)-1-(methylamino)-2,7-naphthyridine-4-carboxylic acid]: in test [1], the Kd lay within 0.1 to 1 µM. In test [2], the IC50 is over 0.5 µM.

As for `CNC(=O)c1cnc(NC)c2cnc(NC(=O)C3CC3)cc12` [Example 124, 6-(cyclopropanecarboxamido)-N-methyl-1-(methylamino)-2,7-naphthyridine-4-carboxamide], the Kd in test [1] is at most 0.1 µM. The IC50 in test [2] is over 0.5 µM.

With `C#Cc1cnc(NC)c2cnc(NC(=O)C3CC3)cc12` [Example 125, N-(5-ethynyl-8-(methylamino)-2,7-naphthyridin-3-yl)cyclopropanecarboxamide], the Kd in test [1] was at most 0.1 µM. Besides, the IC50 in test [2] was over 0.5 µM.

For the compound `CNc1ncc(-c2cc(Br)no2)c2cc(NC(=O)C3CC3)ncc12` [Example 126, N-(5-(3-bromoisoxazol-5-yl)-8-(methylamino)-2,7-naphthyridin-3-yl)cyclopropanecarboxamide], the Kd in test [1] was at most 0.1 µM. The IC50 in test [2] is over 0.5 µM.

On to `CNc1ncc(C#CC(=O)C2CC2)c2cc(NC(=O)C3CC3)ncc12` [Example 127, N-(5-(3-cyclopropyl-3-oxoprop-1-yn-1-yl)-8-(methylamino)-2,7-naphthyridin-3-yl)cyclopropanecarboxamide], for which, in test [1], the Kd was at most 0.1 µM. Also, in test [2], the IC50 was over 0.5 µM.

Turning to `CCC(=O)c1cnc(NC)c2cnc(NC(=O)C3CC3)cc12` [Example 128, N-((methylamino)-5-propionyl-2,7-naphthyridin-3-yl)cyclopropanecarboxamide], in test [1], the Kd was at most 0.1 µM. For the same compound, the IC50 in test [2] is over 0.5 µM.

Consider `C/C=C/c1cnc(NC)c2cnc(NC(=O)C3CC3)cc12` [Example 129, (E)-N-(8-(methylamino)-5-(prop-1-en-1-yl)-2,7-naphthyridin-3-yl)cyclopropanecarboxamide], for which the Kd in test [1] was at most 0.1 µM. Further, in test [2], the IC50 is over 0.5 µM.

Regarding `CNc1ncc(-c2cnc(C)o2)c2cc(NC(=O)C3CC3)ncc12` [Example 130, N-(8-(methylamino)-5-(2-methyloxazol-5-yl)-2,7-naphthyridin-3-yl)cyclopropanecarboxamide], the Kd in test [1] is at most 0.1 µM. The IC50 in test [2] was over 0.5 µM.

`CNc1ncc(-c2ccn(Cc3ccccc3)n2)c2cc(NC(=O)C3CC3)ncc12` [Example 131, N-(5-(1-benzyl-1H-pyrazol-3-yl)-8-(methylamino)-2,7-naphthyridin-3-yl)cyclopropanecarboxamide]: the Kd in test [1] was at most 0.1 µM. Further, the IC50 in test [2] is over 0.5 µM.

As for `CNc1ncc(-c2ccc(OC3CCN(C)CC3)cc2)c2cc(NC(=O)C3CC3)ncc12` [Example 132, N-(8-(methylamino)-5-(4-((1-methylpiperidin-4-yl)oxy)phenyl)-2,7-naphthyridin-3-yl)cyclopropanecarboxamide], in test [1], the Kd is at most 0.1 µM. Moreover, the IC50 in test [2] was over 0.5 µM.

For the compound `CNc1ncc(-c2ncc(C)o2)c2cc(NC(=O)C3CC3)ncc12` [Example 133, N-(8-(methylamino)-5-(5-methyloxazol-2-yl)-2,7-naphthyridin-3-yl)cyclopropanecarboxamide], the Kd in test [1] was at most 0.1 µM. Besides, the IC50 in test [2] was over 0.5 µM.

For `CNc1ncc(Nc2ccccc2)c2cc(NC(=O)C3CC3)ncc12` [Example 134, N-(8-(methylamino)-5-(phenylamino)-2,7-naphthyridin-3-yl)cyclopropanecarboxamide], in test [1], the Kd lay within 0.1 to 1 µM. In addition, the IC50 in test [2] is over 0.5 µM.

Turning to `CNc1ncc(/C=C/c2ccc(OC)cc2)c2cc(NC(=O)C3CC3)ncc12` [Example 135, (E)-N-(5-(4-methoxystyryl)-8-(methylamino)-2,7-naphthyridin-3-yl)cyclopropanecarboxamide], the Kd in test [1] was at most 0.1 µM. Besides, the IC50 in test [2] was at most 0.5 µM.

Turning to `C=C(c1ccc(OC)cc1)c1cnc(NC)c2cnc(NC(=O)C3CC3)cc12` [Example 136], the Kd in test [1] was in the range of 0.1 to 1 µM. For the same compound, the IC50 in test [2] is over 0.5 µM.

For the compound `CNc1ncc(C#Cc2ccccc2)c2cc(NC(=O)C3CC3)ncc12` [Example 137, N-(8-(methylamino)-5-(phenylethynyl)-2,7-naphthyridin-3-yl)cyclopropanecarboxamide], the Kd in test [1] was at most 0.1 µM. In addition, the IC50 in test [2] was at most 0.5 µM.

On to `CNc1ncc(-c2cc(C)ns2)c2cc(NC(=O)C3CC3)ncc12` [Example 138, N-(8-(methylamino)-5-(3-methylisothiazol-5-yl)-2,7-naphthyridin-3-yl)cyclopropanecarboxamide], for which the Kd in test [1] is at most 0.1 µM. Moreover, the IC50 in test [2] is over 0.5 µM.

For `CNc1ncc(-c2nc3ccccc3[nH]2)c2cc(NC(=O)C3CC3)ncc12` [Example 139, N-(5-(1H-benzo[d]imidazol-2-yl)-8-(methylamino)-2,7-naphthyridin-3-yl)cyclopropanecarboxamide], the Kd in test [1] is at most 0.1 µM. Besides, in test [2], the IC50 is over 0.5 µM.

Consider `CNc1ncc(-c2nc(C)c[nH]2)c2cc(NC(=O)C3CC3)ncc12` [Example 140, N-(5-(4-methyl-1H-imidazol-2-yl)-8-(methylamino)-2,7-naphthyridin-3-yl)cyclopropanecarboxamide], for which the Kd in test [1] is at most 0.1 µM. In addition, the IC50 in test [2] is over 0.5 µM.
